US20100130909A1, “TREATMENT OF BARRETT'S ESOPHAGUS USING PHOTODYNAMIC THERAPY” (HEALTH RESEARCH, INC., priority 2007, published 2010)
Read-outs that look alike come from different tables or passages of the source.

Legend:
[1] = system: Barrett's esophagus tissue; assay: phase I/II trial of photodynamic therapy using HPPH in patients with Barrett's esophagus; type: in vivo, human; conditions: 30 patients
Procedure: injecting HPPH in a physiologically compatible medium into a patient having Barrett's esophagus tissue to provide a dose level of 3 through 5 mg/m^2 of body surface area, preferably 3 through 4 mg/m^2 of body surface area,
waiting for a time period of 24 through 60 hours to permit preferential absorption of the
HPPH into Barrett's esophagus tissue, and exposing the Barrett's esophagus tissue to light at a wavelength of about 670±5 nm at an energy of from 75 to 200 Joules/cm, preferably 75 to 200 Joules/cm.
Injection of the HPPH is preferably accomplished intravenously usually over a time period of 0.75 to 3 hours in a physiologically compatible medium. The time period is functionally dependent upon rate of infusion and dose level desired. The concentration is preferably 0.5 through 1.5 mg/ml in medium and the medium is preferably 0.1% polysorbate 80, 2% ethyl alcohol and 5% glucose in normal saline.
Exposure is accomplished using a fiber optic carrying laser light emitted by a laser. The laser may be any suitable laser emitting light at the wavelength and energy desired, e.g. a dye or diode laser. Exposure may be adjusted by length of time of exposure and/or adjustment of light intensity.
Using the above parameters, a phase I/II trial using HPPH and a phase III trial using PHOTOFRIN™, the latter approved by the United States Food and Drug Administration, the following results for response of Barrett's esophagus were obtained.

Barrett's mucosa = conditions: cited from earlier work; for Treatment response: CR, PDT + NdYAG thermal ablation: compilation of 1-3 PDT treatments + thermal ablation of small residual islands; for Complications: esophageal stricture / Treatment response: CR (no Barrett's esophagus tissue remained after treatment), PDT only: compilation of 1-3 PDT treatments; for Treatment response: CR (no Barrett's esophagus tissue remained after treatment), PDT only: porfimer sodium 2 mg/kg
[2] = only 1 PDT treatment, percent of patients
[3] = 100 patients, percent of patients
[4] = 100 patients, percent of patients, listed as porfimer sodium

Complications: esophageal stricture [1, 2] | Complications: sunburn ([1]; percent of patients) | Substance | Treatment response: patients with >90 to <100% ablation, PDT only ([1]; only 1 PDT treatment, does not include NdYAG thermal ablation) | Treatment response: CR (no Barrett's esophagus tissue remained after treatment), PDT only [1, 2] | Complete ablation of Barrett's mucosa (PDT only or with thermal ablation) (Barrett's mucosa; 100 patients, 2 mg/kg, 630 nm, 100 to 250 J/cm, percent of patients) | Treatment response: CR, PDT + NdYAG thermal ablation (Barrett's mucosa; [3]) | Treatment response: CR, PDT + NdYAG thermal ablation (Barrett's mucosa; [4]) | Complications: esophageal stricture (Barrett's mucosa; [3]) | Complications: esophageal stricture (Barrett's mucosa; [4]) | Treatment response: CR (no Barrett's esophagus tissue remained after treatment), PDT only (Barrett's mucosa; 100 patients, 630 nm, 100 to 250 J/cm, percent of patients) | Treatment response: CR (no Barrett's esophagus tissue remained after treatment), PDT only (Barrett's mucosa; 100 patients, 630 nm, 100 to 250 J/cm, percent of patients, listed as porfimer sodium) | Complications: sunburn (Barrett's mucosa; [3]) | replacement of Barrett's mucosa with normal esophageal mucosa (Barrett's mucosa; all 100 patients treated, 2 mg/kg, 630 nm, 100 to 250 J/cm, percent of mucosa)
12% | <7% | 3-(1-hexyloxy) ethyl-derivative of pyropheophorbide-a [HPPH] | 47% (>90 to <100% | 4% CR | – | – | – | – | – | – | – | – | –
– | – | porfimer sodium [PHOTOFRIN] | – | – | 43% | 35% CR | 35% | 34% | 34% | 8% CR | 8% | 25-30% | 75-80%
